SMILES	melting point [°C]
O=C(NC(Cc1ccccc1)c1ncc(C(F)(F)F)cc1Cl)c1c(Cl)cccc1Cl (centres unmarked)	164 to 168
CCOC(=O)C(NC(=O)c1ccc(OC)c(OC)c1)c1ncc(CF)cc1Cl (centres unmarked)	40 to 43

The next lines start with the values.

melting point [°C]	SMILES
102 to 105	FC(F)(F)c1cnc(CNC(=S)c2ccccc2Cl)c(Cl)c1 [Compound 701, N-[(3-Chloro-5-trifluoromethyl-2-pyridyl)methyl]-2-chlorobenzenethioamide]
161 to 165	O=C(NCc1ncc(Cl)cc1Cl)c1c(Cl)cccc1Cl [Compound 59, N-[(3,5-dichloro-2-pyridyl)methyl]-2,6-dichlorobenzamide]
83 to 84	CN(Cc1ncc(C(F)(F)F)cc1Cl)C(=O)c1c(Cl)cccc1Cl [Compound 63, N-[(3-Chloro-5-trifluoromethyl-2-pyridyl)methyl]-N-methyl-2,6-dichlorobenzamide]
